Experiment: Boiling temperature at pressure P
Settings: Liquid, Ebulliometric method (Recirculating still)

ClCCCl [1,2-dichloroethane]
Settings | Boiling temperature at pressure P [°C]
60.01 kPa | 67.30
66.68 kPa | 70.70
73.35 kPa | 73.40
80.02 kPa | 76.30
86.69 kPa | 78.90
101.35 kPa | 84.10

From the NIST ThermoML archive (doi:10.1021/acs.jced.9b00484)
